Assay results from patent publication US8859508B2, “Application of 5-methyl-1,3-benzenediol or derivatives thereof in the preparation of medicines and functional foods for treatment or prevention of depression” (Kunming Institute of Botany, Chinese Academy of Sciences, priority 2007, dated 2014).

Tests used:
Kunming mice [1] = assay: Forced swim test (FST) in mice; settings: FST mice
SD model mice = assay: FST in sleep deprivation (SD) model mice; assay type: in vivo, mouse; settings: SD model mice, 24 h and 5 h before FST, 7.5 mg/kg
Procedure: (§1) Kunming mice (Certificate Number: A4CXK(Chuan)2003-16) from the Institute of Experimental Animals, People's Hospital of Sichuan Province, were used. They were 3-4 weeks old at the beginning of the experiments and weighed 25-30 g. ORG was prepared as described in Example 1. Animals were divided into experiment groups with different doses, a vehicle control group, and an imipramine group (Sigma, Batch No. 1061c1588) as positive control.
SD model: A modified method with multiple platforms in a water environment was used to establish the SD model in mice. Mice on the platforms were free to eat and drink. However, if it fell asleep, it fell into the water because of the loss of muscle tone. The fallen animal climbed onto the platform again via a tilt pole which propped up the platforms. After 72 h of sleep deprivation, ORG was administered orally 24 h and 5 h before the FST started. The immobility time of animals were recorded. Methods and data analysis were as described above.

Kunming mice [2] = assay: Tail suspension test (TST) in mice; settings: TST mice, positive control, 15 mg/kg
DD model mice [3] = assay: FST in constant darkness (DD) model mice; assay type: in vivo, mouse; settings: DD mice, positive control, 15 mg/kg
Procedure: as §1, with “into experimental” for “into experiment”, “doses,” for “doses, a”, “control groups,” for “control group,”, “No. 106k1588)” for “No. 1061c1588)”
(§2) DD model in mice: Mice were kept under 24 h continuous dark conditions. The replacement of padding, addition of food and water, and other operations were undertaken in the condition that the intensity of red light was less than 1.0 lux. The period of this condition lasted for 28 days. In the last week, ORG was administered orally once a day for 1 week. The FST and TST were carried out 30 min after the last administration. Methods and data analysis were as described above.

DD model mice [4] = assay: TST in constant darkness (DD) model mice; assay type: in vivo, mouse; settings: DD mice, positive control, 15 mg/kg
Procedure: as §1, with “into experimental” for “into experiment”, “doses,” for “doses, a”, “control groups,” for “control group,”, “No. 106k1588)” for “No. 1061c1588)”
as §2

CMS model mice [5] = assay: TST in chronic unpredictable mild stress (CMS) model mice; assay type: in vivo, mouse; settings: CMS mice, positive control, 15 mg/kg
Procedure: as §1, with “of” for “of the”, “106k1588)” for “1061c1588)”
(§3) CMS model: The chronic mild stresses that Kunming mice were subjected to were reversal of circadian rhythm, continuous light, cold, damp bedding, tilt cages, food and water restriction, and restraint. […] The stress period lasted for 8 weeks. In the last week, ORG was administered orally once a day for 7 consecutive days. The behavioral test was carried out 30 min after the last administration. The parameter tested was immobility time in the FST and TST in the CMS model mice. The methods of FST and TST and data analysis were as described above.

Sprague-Dawley rats = assay: Forced swim test (FST) in rats; assay type: in vivo, rat; settings: positive control, 15 mg/kg
CMS model mice [6] = assay: FST in chronic unpredictable mild stress (CMS) model mice; assay type: in vivo, mouse; settings: CMS mice, positive control, 15 mg/kg
Procedure: as §1, with “of” for “of the”, “106k1588)” for “1061c1588)”
as §3

serum corticosterone = assay: Serum corticosterone level (radioimmunoassay), non-stressed and elevated platform stressed rats; assay type: in vivo, rat
Kunming mice [7] = assay: Morris water maze (MWM) in mice; assay type: in vivo, mouse
Procedure: Kunming mice (Certificate Number: A4CXK(Chuan)2003-16) from the Institute of Experimental Animals, People's Hospital of Sichuan Province, were used. They were 3-4 weeks old at the beginning of the experiment and weighed 25-30 g. ORG was prepared as described in Example 1. Animals were divided into drug administration groups with fluoxetine or different doses of ORG and a vehicle control group. The drug administration groups received 1.75 mg/kg or 3.5 mg/kg of ORG or 15 mg/kg of fluoxetine. Animals received a single i.p. injection of drug or vehicle 30 min either after training every day or 30 min before the retention test on day 8.
Morris water maze: The MWM was performed in a circular pool (100 cm in diameter and 36 cm in depth) with a hidden platform (10 cm×10 cm) that was approximately 1 cm below the water surface. The pool was surrounded by yellow curtains with different shaped markers hanging in each quadrant. The time spent to find the hidden platform and the trajectory of the mouse were recorded by computer. From days 1 to 7, mice were placed in the pool to find the fixed hidden platform. On day 8, the platform was removed and the time that the mouse spent in the target quadrant was counted in 1 min of free swimming.
(§4) Data analysis: The results of the test are expressed as mean±SEM. One-way ANOVA was used followed by the LSD test with SPSS 11 software. The significance level was set at P<0.05.

Kunming mice [8] = assay: Elevated plus maze (EPM) test in mice; assay type: in vivo, mouse; settings: positive control, 2 mg/kg
Procedure: as §1, with “experiment” for “experiments”, “drug administration” for “experiment”, “doses of ORG,” for “doses,”, “a diazepam” for “an imipramine”, “(Jinyao Ltd. Co.,” for “(Sigma,”, “106k1588)” for “1061c1588)”
Elevated plus maze (EPM): The EPM had two open and two closed arms of equal size (30 cm long×5 cm wide). The two closed arms were connected by a central 5 cm×5 cm area. The whole maze was elevated to a height of 35 cm. ORG was administered i.p. 24 h and 5 h before the test started. Mice were individually placed in the center of the maze facing a closed arm. Each animal was tested for 5 min in a single session. The number of entrances into open arms, the number of entrances into closed arms, the total time spent in open arms, and the total time spent in closed arms were recorded; a standard of entry was defined as all limbs entering the arm. The number of entrances into open arms and time spent in open arms were the major indexes to evaluate the anxiety level of the animals, for the more entrances or time, the less the anxiety level.
as §4

[9] = i.p. 24 h and 5 h before test, 10 mg/kg (Table 5)
[10] = positive control, 15 mg/kg (Table 2)

**Q.** For `CC(=O)Oc1cc(C)cc(OC(C)=O)c1` [OR-2Ac, 1,3-O-diacetylorcinol], which “Immobility time (s) (mean ± SEM)” value (Kunming mice [1]; [9]) is on record?
**A.** 170.10 ± 6.37 s

**Q.** For `Cc1cc(O)cc(OC2OC(COC3OC(CO)C(O)C(O)C3O)C(O)C(O)C2O)c1` [ORGG, orcinol-1-O-[β-D-glucopyranosyl-(1→6)]-β-D-glucopyranoside], which “Immobility time (s) (mean ± SEM)” value (Kunming mice [1]; [9]) is on record?
**A.** 184.20 ± 11.29 s

**Q.** `Cc1cc(O)cc(O)c1` [OR, orcinol] was tested. Which “Immobility time (s) (mean ± SEM)” value (Kunming mice [1]; i.p. 24 h and 5 h before test, 10 mg/kg (Table 4)) did it give?
**A.** 82.40 ± 10.64 s

**Q.** Which “Immobility time (s) (mean ± SEM)” value (Kunming mice [1]; [10]) does the source give for `CN(C)CCCN1c2ccccc2CCc2ccccc21` [Imipramine, imipramine, reference compound] here?
**A.** 131.20 ± 3.91 s

**Q.** And the “Immobility time (s) (mean ± SEM)” value (Kunming mice [1]; positive control, 15 mg/kg (Table 4))?
**A.** 96.38 ± 12.04 s

**Q.** And the “Immobility time (s) (mean ± SEM)” value (Kunming mice [1]; positive control, 15 mg/kg (Table 5))?
**A.** 146.00 ± 6.46 s

**Q.** And the “Immobility time (s) (mean ± SEM)” value (SD model mice)?
**A.** 150.27 ± 13.17 s

**Q.** What about the “Immobility time (s) (mean ± SEM)” value (Kunming mice [2]) of the same compound?
**A.** 105.65 ± 5.71 s

**Q.** And the “Immobility time (s) (mean ± SEM)” value (DD model mice [3])?
**A.** 161.22 ± 13.08 s

**Q.** What about the “Immobility time (s) (mean ± SEM)” value (DD model mice [4]) of the same compound?
**A.** 131.22 ± 10.61 s

**Q.** What about the “Immobility time (s) (mean ± SEM)” value (CMS model mice [5]) of the same compound?
**A.** 131.22 ± 10.61 s

**Q.** And the “Immobility time (s) (mean ± SEM)” value (Sprague-Dawley rats)?
**A.** 92.72 ± 7.09 s

**Q.** And the “Immobility time (s) (mean ± SEM)” value (CMS model mice [6])?
**A.** 166.00 ± 13.84 s

**Q.** For `CNCCC(Oc1ccc(C(F)(F)F)cc1)c1ccccc1` (stereo not drawn) [Fluoxetine, reference compound], which “Concentration of serum corticosterone (ng/ml) (mean ± SEM)” value (“Concentration … (mean ± SEM)” below) (serum corticosterone; non-stress rats, 15 mg/kg) is on record?
**A.** 167.20 ± 31.35 ng/mL

**Q.** What about the “Concentration … (mean ± SEM)” value (serum corticosterone; non-stress rats, 30 mg/kg) of the same compound?
**A.** 178.14 ± 38.77 ng/mL

**Q.** What about the “Concentration … (mean ± SEM)” value (serum corticosterone; stress rats, 15 mg/kg) of the same compound?
**A.** 331.35 ± 46.43 ng/mL

**Q.** What about the “Concentration … (mean ± SEM)” value (serum corticosterone; stress rats, 30 mg/kg) of the same compound?
**A.** 324.58 ± 58.63 ng/mL

**Q.** And the “Time spent in the right quadrant (s) (mean ± SEM)” value (Kunming mice [7]; i.p. 30 min before retrieval on day 8, 15 mg/kg)?
**A.** 29.44 ± 2.14 s

**Q.** What about the “Time spent in the right quadrant (s) (mean ± SEM)” value (Kunming mice [7]; i.p. daily 30 min after training, retention test day 8, 15 mg/kg) of the same compound?
**A.** 32.61 ± 2.20 s

**Q.** Which results are given for `COc1ccc(C(CN(C)C)C2(O)CCCCC2)cc1` (stereo not drawn) [Venlafaxine, venlafaxine, reference compound]?
**A.** Immobility time (s) (mean ± SEM) (Kunming mice [1]; [10]): 134.28 ± 3.76 s; Immobility time (s) (mean ± SEM) (Kunming mice [2]): 102.85 ± 9.34 s; Immobility time (s) (mean ± SEM) (Sprague-Dawley rats): 100.80 ± 9.84 s

**Q.** What does the source list for `CN1C(=O)CN=C(c2ccccc2)c2cc(Cl)ccc21` [Diazepam, diazepam, reference compound]?
**A.** Number of entries into open arms (mean ± SEM) (Kunming mice [8]): 4.80 ± 0.77; Total time spent in the open arms (s) (mean ± SEM) (Kunming mice [8]): 46.90 ± 7.19 s
